Data reported in ChEMBL document CHEMBL1201862, “PubChem BioAssay data set” (2004).
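In this assay, cells in 96-well plates receive the compound at five concentrations for 48 hours. Endpoints are linearly interpolated between the surrounding concentrations. GI50 = concentration required for 50% inhibition of growth.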 Active and inactive are the calls of the source. Cut-off read from the data, not from the text of the source: active = GI50 up to about 1.1 µM and inactive = higher.

How the values were obtained:
Test in all cases: DTP human tumour cell line panel, 48 h
ACHN = system: ACHN
COLO 205 = system: COLO 205
HL-60 = system: HL-60
HOP-62 = system: HOP-62
IGROV-1 = system: IGROV-1
KM12 = system: KM12
LOX IMVI = system: LOX IMVI
M14 = system: M14
M19-MEL = system: M19-MEL
NCI-H460 = system: NCI-H460
OVCAR-5 = system: OVCAR-5
SF-539 = system: SF-539
SK-MEL-5 = system: SK-MEL-5
SNB-78 = system: SNB-78
SW-620 = system: SW-620
UACC-62 = system: UACC-62
UO-31 = system: UO-31

Measured: GI50

Cn1cnc(CCc2ccccc2)n1
inactive: ACHN > 100 µM | COLO 205 > 100 µM | HL-60 > 100 µM | HOP-62 > 100 µM | IGROV-1 > 100 µM | KM12 > 100 µM | LOX IMVI > 100 µM | M14 > 100 µM | M19-MEL > 100 µM | NCI-H460 > 100 µM | OVCAR-5 > 100 µM | SF-539 > 100 µM | SK-MEL-5 > 100 µM | SNB-78 > 100 µM | SW-620 > 100 µM | UACC-62 > 100 µM | UO-31 > 100 µM

C/C(CN1C(=O)c2ccccc2C1=O)=N\NS(=O)(=O)c1cccc(C(=O)O)c1
inactive: ACHN > 100 µM | COLO 205 > 100 µM | HL-60 > 100 µM | HOP-62 > 100 µM | IGROV-1 > 100 µM | KM12 > 100 µM | M14 > 100 µM | M19-MEL > 100 µM | NCI-H460 > 100 µM | OVCAR-5 > 100 µM | SF-539 > 100 µM | SK-MEL-5 > 100 µM | SNB-78 > 100 µM | SW-620 > 100 µM | UACC-62 > 100 µM | UO-31 > 100 µM

ClCCC[Si]12OCCN(CCO1)CCO2
inactive: ACHN > 100 µM | COLO 205 > 100 µM | HL-60 > 100 µM | IGROV-1 > 100 µM | KM12 > 100 µM | M19-MEL > 100 µM | NCI-H460 > 100 µM | OVCAR-5 > 100 µM | SF-539 > 100 µM | SK-MEL-5 > 100 µM | SNB-78 > 100 µM | SW-620 > 100 µM | UACC-62 > 100 µM | UO-31 > 100 µM

COC(=O)[C@@H]1CCCCC[C@H]2C(CO)=C(C)C(=O)C12 (stereo not given in full)
inactive: ACHN > 100 µM | COLO 205 > 100 µM | HL-60 > 100 µM | HOP-62 > 100 µM | IGROV-1 > 100 µM | KM12 > 100 µM | M14 > 100 µM | M19-MEL > 100 µM | NCI-H460 > 100 µM | OVCAR-5 > 100 µM | SF-539 > 100 µM | SK-MEL-5 > 100 µM | SNB-78 > 100 µM | SW-620 > 100 µM | UACC-62 > 100 µM | UO-31 > 100 µM

Cc1cc(C)nc(NS(=O)(=O)c2ccc(NC(=O)c3ccc(Cl)c4c(Nc5ccc(S(=O)(=O)Nc6cc(C)on6)cc5)c5ccccc5nc34)cc2)n1
inactive: ACHN 18.9 µM | COLO 205 18.1 µM | HL-60 8.95 µM | HOP-62 16.3 µM | IGROV-1 20.1 µM | KM12 18.4 µM | LOX IMVI 15.8 µM | M14 18.8 µM | M19-MEL 21 µM | NCI-H460 18 µM | OVCAR-5 21 µM | SF-539 18.7 µM | SK-MEL-5 16.4 µM | SNB-78 13.9 µM | SW-620 17.3 µM | UACC-62 17.1 µM | UO-31 17.6 µM

CC(=O)NNc1nc(C)c(C(=O)NNC(=O)C(=O)Nc2c(Cl)cc([N+](=O)[O-])cc2Cl)s1
inactive: ACHN 31.8 µM | COLO 205 36.3 µM | HL-60 28.2 µM | HOP-62 56.6 µM | IGROV-1 49.3 µM | KM12 40 µM | LOX IMVI 25.6 µM | M14 52.1 µM | M19-MEL 46.6 µM | NCI-H460 43.2 µM | OVCAR-5 27.2 µM | SF-539 24.2 µM | SK-MEL-5 40 µM | SNB-78 31.9 µM | SW-620 24.5 µM | UACC-62 29.9 µM | UO-31 27.4 µM

CCc1cccc(C(C)C)c1NC(=O)C(=O)CC(=O)c1c(C)[n+]([O-])c2ccccc2[n+]1[O-]
inactive: ACHN 77.6 µM | COLO 205 > 100 µM | HL-60 > 100 µM | HOP-62 > 100 µM | IGROV-1 > 100 µM | LOX IMVI > 100 µM | M14 > 100 µM | M19-MEL > 100 µM | NCI-H460 > 100 µM | OVCAR-5 > 100 µM | SF-539 > 100 µM | SK-MEL-5 > 100 µM | SNB-78 > 100 µM | SW-620 > 100 µM | UACC-62 > 100 µM | UO-31 > 100 µM

O=C1C[C@@H]2[C@@H](C=CC23CC3)N1O
inactive: COLO 205 > 100 µM | HL-60 > 100 µM | HOP-62 > 100 µM | IGROV-1 > 100 µM | KM12 > 100 µM | LOX IMVI > 100 µM | M14 > 100 µM | M19-MEL > 100 µM | NCI-H460 > 100 µM | OVCAR-5 > 100 µM | SF-539 > 100 µM | SK-MEL-5 > 100 µM | SNB-78 > 100 µM | SW-620 > 100 µM | UACC-62 > 100 µM | UO-31 > 100 µM

NCCCNCCCCN(CCCN)/[N+]([O-])=N\O
inactive: ACHN > 100 µM | COLO 205 > 100 µM | HL-60 > 100 µM | HOP-62 > 100 µM | IGROV-1 > 100 µM | KM12 > 100 µM | M14 > 100 µM | M19-MEL > 100 µM | NCI-H460 > 100 µM | OVCAR-5 > 100 µM | SF-539 > 100 µM | SK-MEL-5 > 100 µM | SNB-78 > 100 µM | SW-620 > 100 µM | UACC-62 > 100 µM | UO-31 > 100 µM
